{"source": "paper PMC7961786", "about": "“Magic Peptide: Unique Properties of the LRR11 Peptide in the Activation of Leukotriene Synthesis in Human Neutrophils” (International Journal of Molecular Sciences, 2021)", "system": "human neutrophils (PMNLs), 5-LOX product synthesis", "test": "5-LOX metabolite synthesis in human neutrophils stimulated with opsonized S. typhimurium (HPLC)", "format": "cell-based", "note": "Entries after “also recorded” stand apart in the source; their conditions may differ.", "data": [{"substance": "QLRKLNLSFNYQKRVSFAHLSLAPSFGSLV [LRR11, 30 amino acid peptide from leucine-rich repeat of TLR9]", "values": [{"measurement": "effect of LRR11 on 5-LOX product synthesis in combination with ODN or LPS", "setting": "1 µM LRR11 added simultaneously with 1 µM ODN or LPS, then opsonized S. typhimurium, Figure 1", "value": "does not significantly change the effects of G-rich ODN and lipopolysaccharides (LPS), but obviously enhances the effects of CpG-ODNs; also recorded: stimulated the formation of the 5-LOX products; also recorded: synergistically amplifying each other’s effects"}, {"measurement": "effect of LRR11 on FPS-ZM1 action on leukotriene synthesis", "setting": "1 µM LRR11 with ODN after 0.15 µM FPS-ZM1, Figure 3", "value": "its action is nullified in the presence of LRR11 peptide; also recorded: LRR11 abolished the effects of FPS-ZM1 and restored the level of leukotriene synthesis"}, {"measurement": "LTB4 accumulation, dependence on way of LRR11 addition", "setting": "(1) LRR11 15 min before ODN, (2) simultaneously but independently, (3) 1-h pre-mixed", "value": "only pathways (2) and (3) provide a significant effect on LTB4 accumulation"}]}, {"substance": "5′-tcgtcgttttcggcgcgcgccg-3′ (DNA TCGTCGTTTTCGGCGCGCGCCG; chemistry not fully specified) [C-CpG]", "values": [{"measurement": "effect on 5-LOX activity / leukotriene synthesis", "setting": "ODN alone, 1 µM, 20 min, then opsonized S. typhimurium 15 min, Figure 1, five independent experiments in duplicate", "value": "increased leukotriene synthesis"}, {"measurement": "Σ 5-LOX metabolites", "setting": "Table S1, 2×10^7 PMNLs, 15 min at 37 °C without or with 5 µM Chloroquine, then ODN, after 20 min 0.5×10^9 opsonized S. typhimurium for 15 min, mean ± SEM, three independent experiments", "value": "42.1 ± 4.2", "unit": "ng/107 PMNLs"}]}]}
